From patent US10780090B2, “Heteroaryl compounds useful as inhibitors of SUMO activating enzyme” (Millennium Pharmaceuticals, Inc., priority 2014, dated 2020)

Biological target: recombinant human SAE enzyme (Homo sapiens (Human), UniProt Q9UBT2)
Assay: SAE HTRF enzyme assay
Assay type: biochemical
Details: for inhibition at 0.111 µM: read-out: Percent Inhibition
Summary of the method: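 Enzyme reaction: 50 mM HEPES pH 7.5, 5 mM MgCl2, 250 μM GSH, 0.05% BSA, 0.5 μM ATP, 0.01 μM Ubc9-GST, 0.125 μM Sumo-Flag, 0.11 nM SAE; 105 min, 24° C. Stop/detect, 2 h, then HTRF. % inh or IC50.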

[1] = SAE inhibition at compound concentration 0.111 μM
[2] = SAE inhibition, class symbols, legend in nM

Sequence of recombinant human SAE enzyme (Q9UBT2 whole entry): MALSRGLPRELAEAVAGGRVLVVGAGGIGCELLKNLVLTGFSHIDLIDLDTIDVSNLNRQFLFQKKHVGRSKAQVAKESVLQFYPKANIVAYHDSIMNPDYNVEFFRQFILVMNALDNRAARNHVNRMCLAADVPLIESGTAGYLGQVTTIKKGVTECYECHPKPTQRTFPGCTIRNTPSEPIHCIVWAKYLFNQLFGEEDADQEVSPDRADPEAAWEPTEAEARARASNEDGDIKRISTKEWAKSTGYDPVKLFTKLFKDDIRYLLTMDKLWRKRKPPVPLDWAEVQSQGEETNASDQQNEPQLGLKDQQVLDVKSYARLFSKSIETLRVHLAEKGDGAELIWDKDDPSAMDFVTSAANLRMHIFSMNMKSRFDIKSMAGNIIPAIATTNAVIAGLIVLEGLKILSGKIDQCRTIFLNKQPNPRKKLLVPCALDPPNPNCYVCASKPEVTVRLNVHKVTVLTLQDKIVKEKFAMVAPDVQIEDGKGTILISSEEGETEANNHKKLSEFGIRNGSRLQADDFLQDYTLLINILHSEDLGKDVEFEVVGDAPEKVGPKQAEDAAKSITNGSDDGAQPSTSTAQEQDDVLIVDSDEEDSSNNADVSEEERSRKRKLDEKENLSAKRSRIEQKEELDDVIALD
Sequence of recombinant human SAE enzyme (Q9UBE0 whole entry partner): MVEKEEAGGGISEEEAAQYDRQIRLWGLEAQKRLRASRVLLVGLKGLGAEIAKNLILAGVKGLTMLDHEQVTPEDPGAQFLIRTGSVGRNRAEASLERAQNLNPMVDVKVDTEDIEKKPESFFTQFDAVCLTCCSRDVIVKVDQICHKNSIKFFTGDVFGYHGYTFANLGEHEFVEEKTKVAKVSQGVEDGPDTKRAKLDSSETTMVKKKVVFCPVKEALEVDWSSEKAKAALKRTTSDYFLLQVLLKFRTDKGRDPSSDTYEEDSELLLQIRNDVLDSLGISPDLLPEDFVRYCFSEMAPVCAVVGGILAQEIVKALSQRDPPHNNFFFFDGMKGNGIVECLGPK

Row | Molecule | Percent Inhibition (Concentration 0.111 μM) | IC50 (class symbols A/B/C) | Percent Inhibition [1] | IC50 [2] | inhibition at 0.111 µM (Concentration 0.111 μM)
1 | N[C@H](c1cccc(Cl)c1)c1csc(C(=O)c2cncnc2N[C@@H]2C[C@H](COS(N)(=O)=O)[C@@H](O)C2)c1 (single isomer, unassigned) [I-36b, [(1R,2S,4R)-4-{[5-({4-[(R)-amino(3-chlorophenyl)methyl]-2-thienyl}carbonyl)pyrimidin-4-yl]amino}-2-hydroxycyclopentyl]methyl sulfamate or [(1R,2S,4R)-4-{[5-({4-[(S)-amino(3-chlorophenyl)methyl]-2-thienyl}carbonyl)pyrimidin-4-yl]amino}-2-hydroxycyclopentyl]methyl sulfamate] | 99 | < 10 nM |  |  | 
2 | C[C@@](O)(c1ccccc1)c1coc(C(=O)c2cncnc2N[C@@H]2C[C@H](COS(N)(=O)=O)[C@@H](O)C2)c1.C[C@](O)(c1ccccc1)c1coc(C(=O)c2cncnc2N[C@@H]2C[C@H](COS(N)(=O)=O)[C@@H](O)C2)c1 (mixture of isomers) [I-58, {(1R,2S,4R)-2-hydroxy-4-[(5-{4-[(1S)-1-hydroxy-1-phenylethyl]-2-furoyl}pyrimidin-4-yl)amino]cyclopentyl}methyl sulfamate and {(1R,2S,4R)-2-hydroxy-4-[(5-{4-[(1R)-1-hydroxy-1-phenylethyl]-2-furoyl}pyrimidin-4-yl)amino]cyclopentyl}methyl sulfamate] | 96 | < 10 nM |  |  | 
3 | CO[C@H](c1cccc(Cl)c1)c1cc(C(=O)c2cncnc2N[C@@H]2C[C@H](COS(N)(=O)=O)[C@@H](O)C2)sc1Cl (single isomer, unassigned) [I-90a, [(1R,2S,4R)-4-{[5-({5-chloro-4-[(R)-(3-chlorophenyl)(methoxy)methyl]-2-thienyl}carbonyl)pyrimidin-4-yl]amino}-2-hydroxycyclopentyl]methyl sulfamate or [(1R,2S,4R)-4-{[5-({5-chloro-4-[(S)-(3-chlorophenyl)(methoxy)methyl]-2-thienyl}carbonyl)pyrimidin-4-yl]amino}-2-hydroxycyclopentyl]methyl sulfamate] | 98 | < 10 nM |  |  | 
4 | Cc1cnn2c1[C@H](c1csc(C(=O)c3cncnc3N[C@@H]3C[C@H](COS(N)(=O)=O)[C@@H](O)C3)c1)OCC2 (mixture of isomers) [I-333, [(1R,2S,4R)-2-hydroxy-4-{[5-({4-[(4S)-3-methyl-6,7-dihydro-4H-pyrazolo[5,1-c][1,4]oxazin-4-yl]-2-thienyl}carbonyl)pyrimidin-4-yl]amino}cyclopentyl]methyl sulfamate and [(1R,2S,4R)-2-hydroxy-4-{[5-({4-[(4R)-3-methyl-6,7-dihydro-4H-pyrazolo[5,1-c][1,4]oxazin-4-yl]-2-thienyl}carbonyl)pyrimidin-4-yl]amino}cyclopentyl]methyl sulfamate] |  |  | 15% | 100 to 1000 nM | 
5 | Cc1sc(C(=O)c2cncnc2N[C@@H]2C[C@H](COS(N)(=O)=O)[C@@H](O)C2)cc1[C@@H]1OCCc2sccc21 (mixture of isomers) [I-275, [(1R,2S,4R)-4-{[5-({4-[(4S)-6,7-dihydro-4H-thieno[3,2-c]pyran-4-yl]-5-methyl-2-thienyl}carbonyl)pyrimidin-4-yl]amino}-2-hydroxycyclopentyl]methyl sulfamate and [(1R,2S,4R)-4-{[5-({4-[(4R)-6,7-dihydro-4H-thieno[3,2-c]pyran-4-yl]-5-methyl-2-thienyl}carbonyl)pyrimidin-4-yl]amino}-2-hydroxycyclopentyl]methyl sulfamate] | 97 | < 10 nM |  |  | 
6 | NS(=O)(=O)OC[C@H]1C[C@@H](Nc2ncncc2C(=O)c2cc(C(O)c3cccc(Cl)n3)cs2)C[C@@H]1O (single isomer, unassigned) [I-29a, [(1R,2S,4R)-4-{[5-({4-[(S)-(6-chloropyridin-2-yl)(hydroxy)methyl]-2-thienyl}carbonyl)pyrimidin-4-yl]amino}-2-hydroxycyclopentyl]methyl sulfamate or [(1R,2S,4R)-4-{[5-({4-[(R)-(6-chloropyridin-2-yl)(hydroxy)methyl]-2-thienyl}carbonyl)pyrimidin-4-yl]amino}-2-hydroxycyclopentyl]methyl sulfamate] | 97 | < 10 nM |  |  | 
7 | [(1R,2S,4R)-2-hydroxy-4-{[5-({4-[(1R)-2-methyl-2,3-dihydro-1H-isoindol-1-yl]-2-thienyl}carbonyl)pyrimidin-4-yl]amino}cyclopentyl]methyl sulfamate and [(1R,2S,4R)-2-hydroxy-4-{[5-({4-[(1S)-2-methyl-2,3-dihydro-1H-isoindol-1-yl]-2-thienyl}carbonyl)pyrimidin-4-yl]amino}cyclopentyl]methyl sulfamate [I-308] |  |  | 98% | < 10 nM | 
8 | Cc1sc(C(=O)c2cncnc2N[C@@H]2C[C@H](COS(N)(=O)=O)[C@@H](O)C2)cc1[C@H]1NCCc2ccccc21 (single isomer, unassigned) [I-292a, [(1R,2S,4R)-2-hydroxy-4-{[5-({5-methyl-4-[(1S)-1,2,3,4-tetrahydroisoquinolin-1-yl]-2-thienyl}carbonyl)pyrimidin-4-yl]amino}cyclopentyl]methyl sulfamate or [(1R,2S,4R)-2-hydroxy-4-{[5-({5-methyl-4-[(1R)-1,2,3,4-tetrahydroisoquinolin-1-yl]-2-thienyl}carbonyl)pyrimidin-4-yl]amino}cyclopentyl]methyl sulfamate] |  |  | 99% | < 10 nM | 
9 | CC(O)(c1cccc(Cl)c1)c1cc(C(=O)c2cncnc2N[C@@H]2C[C@H](COS(N)(=O)=O)[C@@H](O)C2)sc1Cl (single isomer, unassigned) [I-102b, [(1R,2S,4R)-4-{[5-({5-chloro-4-[(1R)-1-(3-chlorophenyl)-1-hydroxyethyl]-2-thienyl}carbonyl)pyrimidin-4-yl]amino}-2-hydroxycyclopentyl]methyl sulfamate or [(1R,2S,4R)-4-{[5-({5-chloro-4-[(1S)-1-(3-chlorophenyl)-1-hydroxyethyl]-2-thienyl}carbonyl)pyrimidin-4-yl]amino}-2-hydroxycyclopentyl]methyl sulfamate] | 97 | < 10 nM |  |  | 
10 | NS(=O)(=O)OC[C@H]1C[C@@H](Nc2ncncc2C(=O)c2cc(CC3=CCCCC3)cs2)C[C@@H]1O [I-140, {(1R,2S,4R)-4-[(5-{[4-(Cyclohex-1-en-1-ylmethyl)-2-thienyl]carbonyl}pyrimidin-4-yl)amino]-2-hydroxycyclopentyl}methyl sulfamate] |  | < 10 nM |  |  | 93%
11 | NS(=O)(=O)OC[C@H]1C[C@@H](Nc2ncncc2C(=O)c2cc(CN3CCN(c4ccccc4)CC3)cs2)C[C@@H]1O [I-241, [(1R,2S,4R)-2-hydroxy-4-{[5-({4-[(4-phenylpiperazin-1-yl)methyl]-2-thienyl}carbonyl)pyrimidin-4-yl]amino}cyclopentyl]methyl sulfamate] |  | 100 to 1000 nM |  |  | 18%
12 | Cc1sc(C(=O)c2cncnc2N[C@@H]2C[C@H](COS(N)(=O)=O)[C@@H](O)C2)cc1[S@+]([O-])c1cccc(Cl)c1 (single isomer, unassigned) [I-28b, [(1R,2S,4R)-4-{[5-({4-[(R)-(3-chlorophenyl)sulfinyl]-5-methyl-2-thienyl}carbonyl)pyrimidin-4-yl]amino}-2-hydroxycyclopentyl]methyl sulfamate or [(1R,2S,4R)-4-{[5-({4-[(S)-(3-chlorophenyl)sulfinyl]-5-methyl-2-thienyl}carbonyl)pyrimidin-4-yl]amino}-2-hydroxycyclopentyl]methyl sulfamate] | 100 | < 10 nM |  |  | 
13 | NS(=O)(=O)OC[C@H]1C[C@@H](Nc2ncncc2C(=O)c2cc(Cc3cccc(Cl)c3)c(CO)s2)C[C@@H]1O [I-35, {(1R,2S,4R)-4-[(5-{[4-(3-chlorobenzyl)-5-(hydroxymethyl)-2-thienyl]carbonyl}pyrimidin-4-yl)amino]-2-hydroxycyclopentyl}methyl sulfamate] |  | < 10 nM |  |  | 98%
14 | NS(=O)(=O)OC[C@H]1C[C@@H](Nc2ncncc2C(=O)c2cc([C@@H](O)c3cccc(Br)c3)c(Cl)s2)C[C@@H]1O (single isomer, unassigned) [I-16b, 1R,2S,4R)-4-{[5-({4-[(S)-(3-Bromophenyl)(hydroxy)methyl]-5-chloro-2-thienyl}carbonyl)pyrimidin-4-yl]amino}-2-hydroxycyclopentyl]methyl sulfamate or [(1R,2S,4R)-4-{[5-({4-[(R)-(3-Bromophenyl)(hydroxy)methyl]-5-chloro-2-thienyl}carbonyl)pyrimidin-4-yl]amino}-2-hydroxycyclopentyl]methyl sulfamate] | 98 | < 10 nM |  |  | 
15 | Cc1nc2n(c1C)CCO[C@@H]2c1cc(C(=O)c2cncnc2N[C@@H]2C[C@H](COS(N)(=O)=O)[C@@H](O)C2)sc1C (single isomer, unassigned) [I-356b, [(1R,2S,4R)-4-{[5-({4-[(8R)-2,3-dimethyl-5,6-dihydro-8H-imidazo[2,1-c][1,4]oxazin-8-yl]-5-methyl-2-thienyl}carbonyl)pyrimidin-4-yl]amino}-2-hydroxycyclopentyl]methyl sulfamate or [(1R,2S,4R)-4-{[5-({4-[(8S)-2,3-dimethyl-5,6-dihydro-8H-imidazo[2,1-c][1,4]oxazin-8-yl]-5-methyl-2-thienyl}carbonyl)pyrimidin-4-yl]amino}-2-hydroxycyclopentyl]methyl sulfamate] |  |  | 99% | < 10 nM | 
